Test results: US6664213B1, “Liquid pesticide composition” (Nissan Chemical Industries, Ltd., priority 1999, dated 2003)

Tests used:
[1] = test system: crabgrass(Digitaria ciliaris); assay: Test Example 6: herbicidal effect of Quizalofop-p-ethyl spray solution with added polyoxyethylene alkyl ethers on crabgrass; type: in vivo; settings: scale 0 to 100; spray solution of 40% suspension concentrates of Quizalofop-p-ethyl alone, 125 mg/a., 3 weeks after sowing, 2.5 l/a., 21 days after spraying
Procedure: (§1) A biological test was conducted using spray solutions prepared by adding polyoxyethylene alkyl ethers having different HLB values to a herbicide spray solution.
Biological tests were conducted on crabgrass(Digitaria ciliaris) using spray solutions prepared by adding polyoxyethylene alkyl ethers having different HLB values to a spray solution of 40% suspension concentrates of Quizalofop-p-ethyl. A plastic pot having a diameter of 12 cm was filled with soil, and crabgrass seeds were sowed in the soil. The solutions were sprayed on in an amount of 125 mg per are (mg/a.), calculated as pesticidally active ingredient Quizalofop-p-ethyl, 3 weeks after the seeds were sowed. The amount of the solution sprayed was 2.5 liters per are (1/a.) and 125 ppm of the polyoxyethylene alkyl ethers were added to the solution. Herbicidal effects on crabgrass were observed and evaluated 21 days after spraying.

[2] = test system: velvetleaf (Abutilon theophrasti); assay: Test Example 5: herbicidal effect of Halosulfuron-methyl spray solution with added polyoxyethylene alkyl ethers on velvetleaf; type: in vivo; settings: scale 0 to 100; spray solution of 75% water dispersible granules of Halosulfuron-methyl alone, 0.1 g/a., five-leaf stage, 2 l/a., 27 days after spraying
Procedure: as §1
Biological tests were conducted on velvetleaf (Abutilon theophrasti) using spray solutions prepared by adding polyoxyethylene alkyl ethers having different HLB values to a spray solution of 75% water dispersible granules of Halosulfuron-methyl. To confirm a difference in effect between the polyoxyethylene alkyl ethers, the tests were carried out using a lower concentration of Halosulfuron-methyl than usual. A plastic pot having a diameter of 12 cm was filled with soil, and velvetleaf seeds were sowed in the soil. The solutions were sprayed on velvetleaf of five-leaf stage in an amount of 0.1 g per are (g/a.), calculated as pesticidally active ingredient Halosulfuron-methyl. The amount of the solution sprayed was 2 liters per are (l/a.)and 1,000 ppm of a the polyethylene alkyl ethers were added to the solution. Herbicidal effects were observed and evaluated 27 days after spraying.

Row | Compound | Observation evaluation, herbicidal effect of Quizalofop-p-ethyl on crabgrass, polyoxyethylene alkyl ether not added [1] | Observation evaluation, herbicidal effect of Halosulfuron-methyl on velvetleaf, polyoxyethylene alkyl ether not added [2]
1 | CCOC(=O)[C@@H](C)Oc1ccc(Oc2cnc3cc(Cl)ccc3n2)cc1 [Quizalofop-p-ethyl, ethyl=(R)-2-[4-(6-chloroquinoxalin-2-yloxy)phenoxy]propionate] | 25 | –
2 | COC(=O)c1c(Cl)nn(C)c1S(=O)(=O)NC(=O)Nc1nc(OC)cc(OC)n1 [Halosulfuron-methyl] | – | 40
